Data: patent publication US8686150B2 (Sanofi, priority 2011, dated 2014)

Biological target: T1, human full-length recombinant PKC βII (Homo sapiens, UniProt P05771)
T1 construct: Active human full-length recombinant PKC βII; purchased Invitrogen GmbH, Darmstadt, Germany
Assay: Determination of PKC βII inhibition (Caliper mobility-shift kinase assay, Fluorescein-RFARKGSLRQKNV peptide substrate)
Format: biochemical
Conditions: example compounds at a final concentration of 1.14 μM (±0.15 μM)
Procedure, shortened: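 Compounds were tested at 1.14 μM final. Enzyme was activated by PS, DAG and CaCl2 in Hepes pH 7.4 with MgCl2, with substrate 3 μM and ATP 120 μM as pre-mix concentrations. After 60 min at 32 °C and an EDTA stop, Caliper separation gave fractional turnover, which was normalised to no-compound and no-enzyme controls.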

T1 sequence (P05771 1-673 isoform P05771-2): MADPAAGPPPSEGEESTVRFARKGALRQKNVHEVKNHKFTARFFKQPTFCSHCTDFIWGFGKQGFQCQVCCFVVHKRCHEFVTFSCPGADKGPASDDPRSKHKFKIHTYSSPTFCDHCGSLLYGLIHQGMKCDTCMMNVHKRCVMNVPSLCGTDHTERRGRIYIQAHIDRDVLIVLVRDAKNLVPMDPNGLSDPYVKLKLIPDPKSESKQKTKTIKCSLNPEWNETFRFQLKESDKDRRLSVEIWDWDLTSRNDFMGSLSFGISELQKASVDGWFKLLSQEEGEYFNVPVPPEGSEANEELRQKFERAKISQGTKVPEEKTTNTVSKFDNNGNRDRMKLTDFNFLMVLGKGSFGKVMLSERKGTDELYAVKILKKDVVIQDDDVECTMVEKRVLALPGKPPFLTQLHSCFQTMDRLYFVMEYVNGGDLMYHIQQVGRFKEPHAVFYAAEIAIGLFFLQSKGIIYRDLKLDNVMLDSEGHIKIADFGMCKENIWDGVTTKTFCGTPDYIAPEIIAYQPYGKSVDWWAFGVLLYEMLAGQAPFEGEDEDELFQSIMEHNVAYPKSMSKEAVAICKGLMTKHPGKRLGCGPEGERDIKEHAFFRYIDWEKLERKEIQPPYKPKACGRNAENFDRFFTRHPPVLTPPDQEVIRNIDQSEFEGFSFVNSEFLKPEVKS

Row | Compound | inhibition at 1.14 µM [%] | % Inhibition [%]
1 | Cc1n[nH]c2nc(-c3ccc(O)cc3)cc(C(=O)N(CCc3ccccc3)[C@@H]3CCCNC3)c12 [Example 22, 6-(4-Hydroxy-phenyl)-3-methyl-1H-pyrazolo[3,4-b]pyridine-4-carboxylic acid phenethyl-(R)-piperidin-3-yl-amide] | 63 | –
2 | Cc1n[nH]c2nc(-c3ccc(O)cc3)cc(C(=O)NCC(c3ccccc3)N3CCOCC3)c12 (stereo not shown) [Example 394, 6-(4-Hydroxy-phenyl)-3-methyl-1H-pyrazolo[3,4-b]pyridine-4-carboxylic acid (2-morpholin-4-yl-2-phenyl-ethyl)-amide] | 23 | –
3 | O=C(c1cc(-c2ccc(O)cc2)nc2[nH]nc(C(F)(F)F)c12)N1CCC2CNCC21 (stereo not shown) [Example 408, (Hexahydro-pyrrolo[3,4-b]pyrrol-1-yl)-[6-(4-hydroxy-phenyl)-3-trifluoromethyl-1H-pyrazolo[3,4-b]pyridin-4-yl]-methanone] | 21 | –
4 | Cc1n[nH]c2nc(-c3ccc(O)cc3)cc(C(=O)N[C@@H]3CCCC[C@@H]3N)c12 (relative stereo) [Example 126, 6-(4-Hydroxy-phenyl)-3-methyl-1H-pyrazolo[3,4-b]pyridine-4-carboxylic acid (cis-2-amino-cyclohexyl)-amide] | 48 | –
5 | Cc1cc(O)ccc1-c1cc(C(=O)N2CCNCC2c2cccc(F)c2F)c2c(C)n[nH]c2n1 (stereo not shown) [Example 139, [2-(2,3-Difluoro-phenyl)-piperazin-1-yl]-[6-(4-hydroxy-2-methyl-phenyl)-3-methyl-1H-pyrazolo[3,4-b]pyridin-4-yl]-methanone] | 99 | –
6 | CCc1n[nH]c2nc(-c3ccc(O)cc3)cc(C(=O)NC3CC4CCC(C3)N4C)c12 [Example 164, 3-Ethyl-6-(4-hydroxy-phenyl)-1H-pyrazolo[3,4-b]pyridine-4-carboxylic acid ((3R)-8-methyl-8-aza-bicyclo[3.2.1]oct-3-yl)-amide] | – | 53
7 | Cc1n[nH]c2nc(-c3ccc(O)c(F)c3)cc(C(=O)N3C[C@]4(C)CN(C)C[C@](C)(C3)C4O)c12 (stereo partly drawn) [Example 334, [6-(3-Fluoro-4-hydroxy-phenyl)-3-methyl-1H-pyrazolo[3,4-b]pyridin-4-yl]-((1S,5R)-9-hydroxy-1,5,7-trimethyl-3,7-diaza-bicyclo[3.3.1]non-3-yl)-methanone] | 53 | –
8 | CCc1n[nH]c2nc(-c3ccc(O)cc3)cc(C(=O)N3CCC(NC)C3)c12 (stereo not shown) [Example 178, [3-Ethyl-6-(4-hydroxy-phenyl)-1H-pyrazolo[3,4-b]pyridin-4-yl]-(3-methylamino-pyrrolidin-1-yl)-methanone] | 71 | –
9 | Cc1n[nH]c2nc(-c3ccc(O)c(F)c3)cc(C(=O)N(C)C3CCNCC3)c12 [Example 335, 6-(3-Fluoro-4-hydroxy-phenyl)-3-methyl-1H-pyrazolo[3,4-b]pyridine-4-carboxylic acid methyl-piperidin-4-yl-amide] | 61 | –
10 | Cc1n[nH]c2nc(-c3ccc(O)cc3)cc(C(=O)N3CC4CCC3CN4)c12 (stereo not shown) [Example 71, 2,5-Diaza-bicyclo[2.2.2]oct-2-yl-[6-(4-hydroxy-phenyl)-3-methyl-1H-pyrazolo[3,4-b]pyridin-4-yl]-methanone] | 95 | –
11 | CCN1CCCC(NC(=O)c2cc(-c3ccc(O)cc3)nc3[nH]nc(C)c23)C1 (stereo not shown) [Example 273, 6-(4-Hydroxy-phenyl)-3-methyl-1H-pyrazolo[3,4-b]pyridine-4-carboxylic acid (1-ethyl-piperidin-3-yl)-amide] | 83 | –
12 | Cc1n[nH]c2nc(-c3ccc(O)c(F)c3)cc(C(=O)N3CCN[C@@H](C(C)C)C3)c12 [Example 326, [6-(3-Fluoro-4-hydroxy-phenyl)-3-methyl-1H-pyrazolo[3,4-b]pyridin-4-yl]-((S)-3-isopropyl-piperazin-1-yl)-methanone] | 83 | –
13 | Cc1n[nH]c2nc(-c3ccc(O)cc3)cc(C(=O)N[C@@H]3CCC[C@H]3N)c12 [Example 120, 6-(4-Hydroxy-phenyl)-3-methyl-1H-pyrazolo[3,4-b]pyridine-4-carboxylic acid ((1R,2R)-2-amino-cyclopentyl)-amide] | 88 | –
